Test results reported in US20090176888A1, “COMPOSITION COMPRISING PHYTOSPHINGOSINE OR DERIVATIVE THEREOF” (KOREA INSTITUTE OF RADIOLOGICAL & MEDICAL SCIENCES, priority 2003, published 2009).

Assays:
[1] = test system: human lung cancer cells (NCI-H460); test: Apoptosis test (Sub G1, propidium iodide, flow cytometry); format: cell-based
Method: Cancer cells as used in the experiment were human lung cancer cells (NCI-H460, Korean Cell Line Bank), human breast cancer cells (MDA-MB-231, American Type Culture Collection (ATCC)), human uterine cervical cancer cells (HeLa, Korean Cell Line Bank), and blood cancer cells (Jurkat, ATCC). These cancer cells were cultured in RPMI 1640 media containing 10% FBS, penicillin, and streptomycin (GIBCO BRL).
The apoptosis tests were carried out at human lung cancer cells, breast cancer cells, uterine cervical cancer cells, and blood cancer cells as follows:
Phytosphingosine or a derivative thereof was dissolved in DMSO. Samples of the resultant solution of different concentration levels (1, 2, 5, 10, 15, 20 μg/ml) were prepared. According to the following treatment schedule, phytosphingosine treated cancer cells were cultured, washed with PBS (phosphate buffered saline), and fixed with 70% ethanol. The fixed cells were again washed with PBS, suspended in PBS, and 1 mg/ml of RNase was added thereto. Then, DNA was stained with 50 μg/ml of propidium iodide fluorescent dye and the change in the Sub G1 was analyzed by flow cytometry (Becton DICKINSON). The Sub G1, a marker of apoptotic cell death, means DNA distribution lower than that in the G1 phase of cell cycle.
(1-1) In order to determine an anticancer effect of phytosphingosine, 5 ml of 10 μg/ml of phytosphingosine was added to respective dishes containing lung cancer cells, breast cancer cells, uterine cervical cancer cells, and blood cancer cells.
(1-2) In order to examine a correlation of an anticancer effect with the phytosphingosine concentration and post-treatment culture time, each 5 ml of 2, 5, 10, and 15 μg/ml of phytosphingosine was added to respective human uterine cervical cancer cell-containing dishes and human breast cancer cell-containing dishes. In addition, each 5 ml of 5, 10, 15, and 20 μg/ml of phytosphingosine was added to respective human lung cancer cell-containing dishes, and each 5 ml of 1, 5, 10, and 20 μg/ml of phytosphingosine was added to respective human blood cancer cell-containing dishes.
(1-3) An anticancer effect of phytosphingosine derivatives was determined in the same manner as mentioned in (1-1) and (1-2) except using 5 μg/ml of C4PS, C6PS, C8PS, and C12PS.

[2] = Ames test
Excerpt: (§1) Royal Gist-Brocades N.V. (Netherlands) was asked to perform tests for acute oral toxicity and dermal irritation, and Ames tests of phytosphingosine and derivatives thereof.

[3] = test system: human lung cancer cells; test: Analysis of mitochondrial membrane potential (DioC6(3), flow cytometry) and cytochrome c release; format: cell-based; settings: 10 μg/ml phytosphingosine
Method: Human lung cancer cells and blood cancer cells were cultured under the same condition as in the apoptosis test and were treated with 10 ml of phytosphingosine (10 μg/ml of phytosphingosine for lung cancer cells, and 5 μg/ml and 10 μg/ml of phytosphingosine for blood cancer cells). Then, the analysis of mitochondrial membrane potential and western blotting was carried out. Mitochondria were stained with 30 nM of a specific DioC6(3) dye (Calbiochem) for 30 minutes and culture media were removed. Then, lung cancer cells were twice washed with PBS and the membrane potential was analyzed by flow cytometry.

[4] = Oral or transdermal toxicity tests; settings: rat, in vivo, other: oral or transdermal, rats
[5] = test system: blood cancer cells (Jurkat); test: Apoptosis test (Sub G1, propidium iodide, flow cytometry); format: cell-based, human
Method: Cancer cells as used in the experiment were human lung cancer cells (NCI-H460, Korean Cell Line Bank), human breast cancer cells (MDA-MB-231, American Type Culture Collection (ATCC)), human uterine cervical cancer cells (HeLa, Korean Cell Line Bank), and blood cancer cells (Jurkat, ATCC). These cancer cells were cultured in RPMI 1640 media containing 10% FBS, penicillin, and streptomycin (GIBCO BRL). The apoptosis tests were carried out at human lung cancer cells, breast cancer cells, uterine cervical cancer cells, and blood cancer cells as follows: Phytosphingosine or a derivative thereof was dissolved in DMSO. Samples of the resultant solution of different concentration levels (1, 2, 5, 10, 15, 20 μg/ml) were prepared. According to the following treatment schedule, phytosphingosine treated cancer cells were cultured, washed with PBS (phosphate buffered saline), and fixed with 70% ethanol. The fixed cells were again washed with PBS, suspended in PBS, and 1 mg/ml of RNase was added thereto. Then, DNA was stained with 50 μg/ml of propidium iodide fluorescent dye and the change in the Sub G1 was analyzed by flow cytometry (Becton DICKINSON). The Sub G1, a marker of apoptotic cell death, means DNA distribution lower than that in the G1 phase of cell cycle. (1-1) In order to determine an anticancer effect of phytosphingosine, 5 ml of 10 μg/ml of phytosphingosine was added to respective dishes containing lung cancer cells, breast cancer cells, uterine cervical cancer cells, and blood cancer cells. (1-2) In order to examine a correlation of an anticancer effect with the phytosphingosine concentration and post-treatment culture time, each 5 ml of 2, 5, 10, and 15 μg/ml of phytosphingosine was added to respective human uterine cervical cancer cell-containing dishes and human breast cancer cell-containing dishes. In addition, each 5 ml of 5, 10, 15, and 20 μg/ml of phytosphingosine was added to respective human lung cancer cell-containing dishes, and each 5 ml of 1, 5, 10, and 20 μg/ml of phytosphingosine was added to respective human blood cancer cell-containing dishes.

[6] = Acute oral toxicity test; settings: rat, in vivo, rats
Method: as §1
In the acute oral toxicity test, the LD50 (the […]) value amounted to 2,000 mg/kg or more in rats.

[7] = test system: human blood cancer cells; test: Apoptosis test with or without radiation; format: cell-based; settings: 5 μg/ml in combination with radiation
Method: (§2) (1) Each 5 ml of 20 μg/ml of phytosphingosine and derivatives thereof were added to human lung cancer cell-containing dishes. Some cells were cultured without radiation and others were cultured with radiation with dose of 4 Gy. This apoptosis test was carried out in the same manner in the Experiment 1. Specimens used in this apoptosis test are as follows:
(§3) Control (Cont), IR, PS, PS+IR, C4PS, C4PS+IR, C6PS, C6PS+IR, C8PS, C8PS+IR, C12PS, C12PS+IR.
(§4) (2) Apoptosis tests for human blood cancer cells, uterine cervical cancer cells, and breast cancer cells were carried out in the same manner as in the above (1) except using 5 μg/ml of phytosphingosine and derivatives thereof.

[8] = test system: human uterine cervical cancer cells; test: Apoptosis test with or without radiation; format: cell-based; settings: 5 μg/ml in combination with radiation, FIG. 17
Method: as §2, §3, §4

[9] = test system: human breast cancer cells; test: Apoptosis test with or without radiation; format: cell-based; settings: 5 μg/ml in combination with radiation, FIG. 17
Method: as §2, §3, §4

[10] = 10 μg/ml phytosphingosine, test (1-1), FIG. 1

Q: For CCCCCCCCCCCCCC[C@@H](O)[C@@H](O)[C@@H](N)CO [phytosphingosine], which apoptosis ([1]; 10 μg/ml or more, culture of 6 hours or more, FIG. 5) is on record?
A: The apoptosis was 50%.

Q: And the apoptotic rate [1, 10]?
A: Its apoptotic rate is ≥ 50%.

Q: What about the apoptosis ([1]; 10 μg/ml, at 3-6 hours after treatment) of the same compound?
A: Its apoptosis is ≥ 50%.

Q: What about the “mutagenicity (Ames test)” value [2] of the same compound?
A: The value was “do not cause mutation”.

Q: What about the “release of cytochrome c from mitochondria” value ([3]; FIGS. 7, 9) of the same compound?
A: The value was “increased”.

Q: And the mitochondrial membrane potential ([3]; FIGS. 7-8)?
A: Its mitochondrial membrane potential is “decreased”.

Q: What about the LD50 [4] of the same compound?
A: The LD50 was ≥ 2000 mg/kg.

Q: And the apoptosis ([5]; 5 μg/ml or more, culture of 6 hours or more, FIG. 6)?
A: Its apoptosis is ≥ 50%.

Q: And the apoptosis ([5]; 5 μg/ml, at 3-6 hours after treatment)?
A: Its apoptosis is ≥ 50%.

Q: What about the apoptosis ([5]; 10 μg/ml or more, culture of 3 hours or more, FIG. 6) of the same compound?
A: Its apoptosis is ≥ 50%.

Q: And the apoptotic rate [5, 10]?
A: The apoptotic rate was ≥ 50%.

Q: What about the LD50 [6] of the same compound?
A: The LD50 was ≥ 2000 mg/kg.

Q: And the “increase of apoptotic rate, concurrent treatment vs PS or radiation alone” value ([7]; FIG. 15)?
A: Its value is ≥ 20%.

Q: What about the “increase of apoptotic rate, concurrent treatment vs PS or radiation alone” value ([7]; after 18 hours, FIG. 16) of the same compound?
A: Its value is ≥ 15%.

Q: What about the “enhancement of radiosensitizing effect” value [8] of the same compound?
A: The value was “excellent”.

Q: And the “enhancement of radiosensitizing effect” value [9]?
A: Its value is “excellent”.
